Reference: the NIST ThermoML archive (doi:10.1021/acs.jced.8b00684)

Assay: xn = mol fraction of the nth substance listed
Details: 100 kPa, Liquid, Falling or rolling sphere viscometry

CCCCCCn1cc[n+](C)c1.F[B-](F)(F)F [1-hexyl-3-methylimidazolium tetrafluoroborate] + C[S+](C)[O-]
viscosity [mPa·s]
Details	293.15 K	298.15 K	303.15 K	313.15 K	323.15 K	333.15 K	343.15 K	353.15 K
x1 = 0.116	4.93	4.18	3.7	2.96	2.43	1.94	1.68	1.37
x1 = 0.2495	11	9.67	8.37	6.47	5.11	4.02	3.14	2.77
x1 = 0.2831	13.7	11.8	10.1	7.71	6.01	4.74	3.68	3.21
x1 = 0.3857	25	20.6	17.1	12.4	9.35	7.28	5.75	4.72
x1 = 0.5036	44.2	34.9	28.4	19.6	14.3	10.8	8.72	6.7
x1 = 0.5714	58.4	45.6	36.6	24.8	17.7	13.2	10.6	7.99
x1 = 0.6702	84.8	65.6	51.8	34.1	23.7	17.2	13.5	10.2
x1 = 0.7517	114	87.6	68.4	44	30	21.4	16.2	12.3
x1 = 0.7883	130	99.7	77.5	49.2	33.3	23.6	17.6	13.4
x1 = 0.8976	196	148	113	69.4	45.6	31.6	22.5	17.2
x1 = 1	293	216	163	96.7	61.8	41.9	29.5	21.7
